Measured values reported in PubChem BioAssay (NCI).
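Cultured in 96-well plates, cells were exposed to test compound for 48 hours across five concentrations. Here, GI50 denotes the concentration required for 50% inhibition of growth. TGI: concentration producing complete growth inhibition.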

Legend:
Test in all cases: NCI tumour cell line growth inhibition, 48 h
[1] = tested on: 786-0 renal
[2] = tested on: A498 renal
[3] = tested on: A549 NSCLC
[4] = tested on: ACHN renal
[5] = tested on: BT-549 breast
[6] = tested on: CAKI-1 renal
[7] = tested on: COLO 205 colon
[8] = tested on: DU-145 prostate
[9] = tested on: EKVX NSCLC
[10] = tested on: HCC-2998 colon
[11] = tested on: HCT-116 colon
[12] = tested on: HCT-15 colon
[13] = tested on: HL-60(TB) leukemia
[14] = tested on: HOP-62 NSCLC
[15] = tested on: HOP-92 NSCLC
[16] = tested on: HS 578T breast
[17] = tested on: HT29 colon
[18] = tested on: IGROV1 ovarian
[19] = tested on: K-562 leukemia
[20] = tested on: KM12 colon
[21] = tested on: M14 melanoma
[22] = tested on: MALME-3M melanoma
[23] = tested on: MCF7 breast
[24] = tested on: MDA-MB-231 breast
[25] = tested on: MDA-MB-435
[26] = tested on: MOLT-4 leukemia
[27] = tested on: NCI-H226 lung
[28] = tested on: NCI-H23 lung
[29] = tested on: NCI-H460 lung
[30] = tested on: NCI-H522 lung
[31] = tested on: NCI/ADR-RES ovarian
[32] = tested on: OVCAR-3 ovarian
[33] = tested on: OVCAR-4 ovarian
[34] = tested on: OVCAR-5 ovarian
[35] = tested on: OVCAR-8 ovarian
[36] = tested on: PC-3 prostate
[37] = tested on: RPMI-8226 leukemia
[38] = tested on: SF-268 CNS
[39] = tested on: SF-295 CNS
[40] = tested on: SF-539 CNS
[41] = tested on: SK-MEL-2 melanoma
[42] = tested on: SK-MEL-28 melanoma
[43] = tested on: SK-MEL-5 melanoma
[44] = tested on: SK-OV-3 ovarian
[45] = tested on: SN12C renal
[46] = tested on: SNB-19 CNS
[47] = tested on: SNB-75 CNS
[48] = tested on: SR leukemia
[49] = tested on: SW-620 colon
[50] = tested on: T-47D breast
[51] = tested on: TK-10 renal
[52] = tested on: U251 CNS
[53] = tested on: UACC-257 melanoma
[54] = tested on: UACC-62 melanoma
[55] = tested on: CCRF-CEM leukemia
[56] = tested on: LOX IMVI melanoma
[57] = tested on: RXF 393 renal
[58] = tested on: UO-31 renal

## COc1cc(/C=C\c2cc(/C=C\c3ccc(O)c(OC)c3)n(C(=O)Nc3ccc(C(F)(F)F)cc3)n2)ccc1O
[1]
  GI50: 2.42 µM
  TGI: 7.52 µM
[2]
  GI50: 5.81 µM
  TGI: 20.6 µM
[3]
  GI50: 4.11 µM
  TGI: > 100 µM
[4]
  GI50: 2.48 µM
  TGI: 7.08 µM
[5]
  GI50: 1.96 µM
  TGI: 3.67 µM
[6]
  GI50: 3.02 µM
  TGI: 12.7 µM
[7]
  GI50: 2.05 µM
  TGI: 4.5 µM
[8]
  GI50: 3.67 µM
  TGI: 13 µM
[9]
  GI50: 3.22 µM
  TGI: 38.4 µM
[10]
  GI50: 2.04 µM
  TGI: 3.82 µM
[11]
  GI50: 1.51 µM
  TGI: 2.94 µM
[12]
  GI50: 2.69 µM
  TGI: 9.63 µM
[13]
  GI50: 1.98 µM
  TGI: 6.45 µM
[14]
  GI50: 3.6 µM
  TGI: 16.2 µM
[15]
  GI50: 2.35 µM
  TGI: 6.79 µM
[16]
  GI50: 5.1 µM
  TGI: 60.6 µM
[17]
  GI50: 2.02 µM
  TGI: 4.13 µM
[18]
  GI50: 2.77 µM
  TGI: 11.6 µM
[19]
  GI50: 2.53 µM
  TGI: > 100 µM
[20]
  GI50: 2.33 µM
  TGI: 5.59 µM
[21]
  GI50: 1.94 µM
  TGI: 4.08 µM
[22]
  GI50: 2.89 µM
  TGI: 8.4 µM
[23]
  GI50: 1.97 µM
  TGI: 10.7 µM
[24]
  GI50: 3.06 µM
  TGI: 9.62 µM
[25]
  GI50: 2.35 µM
  TGI: 7.06 µM
[26]
  GI50: 2.73 µM
  TGI: 20 µM
[27]
  GI50: 7.29 µM
  TGI: 27.6 µM
[28]
  GI50: 2.13 µM
  TGI: 6.48 µM
[29]
  GI50: 3.22 µM
  TGI: 9.95 µM
[30]
  GI50: 1.78 µM
  TGI: 4.65 µM
[31]
  GI50: 3.51 µM
  TGI: > 100 µM
[32]
  GI50: 3.41 µM
  TGI: 26.7 µM
[33]
  GI50: 3.51 µM
  TGI: 52.7 µM
[34]
  GI50: 2.16 µM
  TGI: 4.97 µM
[35]
  GI50: 3.33 µM
  TGI: > 100 µM
[36]
  GI50: 3.21 µM
  TGI: 13.5 µM
[37]
  GI50: 2.09 µM
  TGI: 6.59 µM
[38]
  GI50: 2.8 µM
  TGI: 15.4 µM
[39]
  GI50: 2.89 µM
  TGI: 9.85 µM
[40]
  GI50: 2.37 µM
  TGI: 7.45 µM
[41]
  GI50: 3.15 µM
  TGI: 17.3 µM
[42]
  GI50: 2.19 µM
  TGI: 5.9 µM
[43]
  GI50: 2.27 µM
  TGI: 6.89 µM
[44]
  GI50: 4.02 µM
  TGI: 66.7 µM
[45]
  GI50: 2.73 µM
  TGI: 9.9 µM
[46]
  GI50: 3.16 µM
  TGI: 11.2 µM
[47]
  GI50: 2.99 µM
  TGI: 66 µM
[48]
  GI50: 1.48 µM
  TGI: > 100 µM
[49]
  GI50: 2.56 µM
  TGI: 5.9 µM
[50]
  GI50: 2.81 µM
  TGI: 39 µM
[51]
  GI50: 4.13 µM
  TGI: 14.8 µM
[52]
  GI50: 2.49 µM
  TGI: 6.86 µM
[53]
  GI50: 4.01 µM
  TGI: 14 µM
[54]
  GI50: 2.02 µM
  TGI: 4.76 µM

## CCCCCCCCOC(=O)c1cc(O)c(O)c(O)c1
[1]
  GI50: 2.46 µM
  TGI: 11.9 µM
[2]
  GI50: 8.26 µM
  TGI: 24.7 µM
[3]
  GI50: 12.7 µM
  TGI: 49 µM
[4]
  GI50: 1.6 µM
  TGI: 13.8 µM
[5]
  GI50: 2.08 µM
  TGI: 14.2 µM
[6]
  GI50: 0.644 µM
  TGI: 3.52 µM
[55]
  GI50: 0.314 µM
  TGI: > 42.8 µM
[7]
  GI50: 9.36 µM
  TGI: 24.8 µM
[8]
  GI50: 2.84 µM
  TGI: 14 µM
[9]
  GI50: 4.65 µM
  TGI: 22.4 µM
[10]
  GI50: 6 µM
  TGI: 18.6 µM
[11]
  GI50: 1.97 µM
  TGI: 12.9 µM
[12]
  GI50: 1.57 µM
  TGI: 18.3 µM
[13]
  GI50: 0.486 µM
  TGI: 5.02 µM
[14]
  GI50: 4.77 µM
  TGI: 20 µM
[15]
  GI50: 0.686 µM
  TGI: 15.6 µM
[16]
  GI50: 2.4 µM
  TGI: 22.2 µM
[17]
  GI50: 14.8 µM
  TGI: 47.6 µM
[18]
  GI50: 0.913 µM
  TGI: 4.88 µM
[19]
  GI50: 2.05 µM
  TGI: > 38.8 µM
[20]
  GI50: 2.9 µM
  TGI: 17.4 µM
[56]
  GI50: 1.33 µM
  TGI: 10.6 µM
[21]
  GI50: 2.15 µM
  TGI: 9.19 µM
[22]
  GI50: 1.74 µM
  TGI: 9.25 µM
[23]
  GI50: 4.14 µM
  TGI: 26.7 µM
[24]
  GI50: 12.1 µM
  TGI: 63.1 µM
[25]
  GI50: 1.53 µM
  TGI: 16.5 µM
[26]
  GI50: 0.437 µM
  TGI: 16.5 µM
[27]
  GI50: 8.51 µM
  TGI: 29 µM
[28]
  GI50: 2.63 µM
  TGI: 11.5 µM
[29]
  GI50: 2.73 µM
  TGI: 10.9 µM
[31]
  GI50: 1.52 µM
  TGI: 10.2 µM
[32]
  GI50: 2.03 µM
  TGI: 14.9 µM
[33]
  GI50: 2.63 µM
  TGI: > 100 µM
[34]
  GI50: 12.5 µM
  TGI: 52.9 µM
[35]
  GI50: 3.14 µM
  TGI: 37.5 µM
[36]
  GI50: 2.02 µM
  TGI: 20.5 µM
[37]
  GI50: 0.511 µM
  TGI: > 100 µM
[57]
  GI50: 5.45 µM
  TGI: 22 µM
[38]
  GI50: 1.49 µM
  TGI: 12.1 µM
[39]
  GI50: 2.23 µM
  TGI: 8.47 µM
[40]
  GI50: 2.52 µM
  TGI: 18.2 µM
[41]
  GI50: 4.72 µM
  TGI: 18.2 µM
[42]
  GI50: 7.19 µM
  TGI: 29.6 µM
[43]
  GI50: 3.26 µM
  TGI: 11.6 µM
[44]
  GI50: 7.28 µM
  TGI: 28 µM
[45]
  GI50: 3.21 µM
  TGI: 31.7 µM
[46]
  GI50: 5.27 µM
  TGI: > 58.9 µM
[47]
  GI50: 2.71 µM
  TGI: 37.6 µM
[48]
  GI50: 0.352 µM
  TGI: 10.3 µM
[49]
  GI50: 2.87 µM
  TGI: 19.4 µM
[50]
  GI50: 2.61 µM
  TGI: 21.8 µM
[51]
  GI50: 3.77 µM
  TGI: > 62.6 µM
[52]
  GI50: 3.02 µM
  TGI: 28.6 µM
[53]
  GI50: 6.4 µM
  TGI: 45.4 µM
[54]
  GI50: 3.27 µM
  TGI: 15.3 µM
[58]
  GI50: 0.279 µM
  TGI: 2.9 µM
